In patent US20240400980A1, “PORCINE PLURIPOTENT STEM CELL CULTURE MEDIUM AND USE THEREOF” (CHINA AGRICULTURAL UNIVERSITY, priority 2021, published 2024):
“Also recorded” adds a separate entry of the source.

Tests used:
Assay type in all cases: cell-based, porcine
pgEpiSCs [1] = assay: RT-qPCR of marker genes in pgEpiSCs in modified 3i/LAF medium; details: for marker gene mRNA expression after removal of the component: component removed from 3i/LAF medium, qRT-PCR
Protocol: Total RNA of pgEpiSCs was extracted using a RNAprep Pure Cell/Bacteria Kit (TIANGEN, DP430), and then reverse transcribed into cDNA using 5× all-in-one RT premix (Abm, G490). PCR was performed using 2× RealStar Green Power Mixture (GenStar, A311-05) on the LightCycler 480 II real-time system (Roche). Comparative CT (2^−ΔΔCT) method was used to analyze the data. ACT was calculated using EF1A as an internal control. Three biological replicates were performed for all experiments. Primers for quantitative real-time PCR were listed in the key resource table.
(§1) Based on the prepared 3i/LAF medium and its culture method in2 above, the requirement of various factors for long-term maintenance in vitro of pgEpiSCs was test by the inventors under the same conditions as in 2 above, except for removing small molecule inhibitors and cytokines from the medium one by one.
(§2) In addition, based on the prepared 3i/LAF medium and its culture method in 2 above, the following tests were also performed by the inventors under the same conditions as in 2 above.

pgEpiSCs [2] = assay: Clone morphology and alkaline phosphatase (AP) staining of pgEpiSCs in modified 3i/LAF medium; details: for clone morphology / AP staining after removal of the component: component removed from 3i/LAF medium
From the text: The alkaline phosphatase staining for pgEpiSCs was based on the Alkaline Phosphatase Detection Kit (Millipore, SCR004).
The specific experimental steps followed the instructions for the kit.
as §1, §2
According to the 3i/LAF medium and its culture method prepared in 2 above, the inventors also investigated the effect of the adjusted or replaced medium on the long-term in vitro maintenance of pgEpiSCs on the basis of adjusting the concentrations of the small molecule inhibitors and cytokines or replacing the compositions of the small molecule inhibitors and cytokines in the culture medium one by one without altering the other conditions.
Experimental method: pgEpiSCs were cultured with the adjusted medium, after which AP staining was performed on the cultured pgEpiSCs of P1 (indicating the pgEpiSCs after 1 passage in the adjusted medium) or P3 (indicating the pgEpiSCs after 3 passages in the adjusted medium). The specific steps of AP staining are described in the section of Experimental Methods described previously.
Principle of the experiment: undifferentiated stem cells will express Ap at high level. By staining fixed stem cells, differentiated cells show no color and undifferentiated cells show purple or red color.

pgEpiSCs [3] = assay: Immunofluorescence of POU5F1 and EOMES in pgEpiSCs in modified 3i/LAF medium; details: component removed from 3i/LAF medium
Protocol: Cells were washed with DPBS (Gibco, C14190500BT) and fixed with 4% paraformaldehyde at room temperature for 30 minutes, then washed again with DPBS, permeabilized in 0.1% Triton X-100 for 20 minutes, and blocked with 3% BSA for 1 hour. Cells were incubated with the primary antibody diluted with 3% BSA overnight at 4° C. Cells were then washed 3 times with the washing buffer (DPBS containing 0.1% Triton X-100 and 0.1% Tween 20) for 3 minutes each time. Cells were incubated with diluted secondary antibody and washing buffer together at room temperature for 1 hour, then washed 3 times with the washing buffer for 5 minutes, followed by nuclear staining with DAPI (Roche Life Science, 10236276001) for 3 minutes.
as §1

pgEpiSCs [4] = assay: Proliferation and passage of pgEpiSCs with FGF2 removed or varied; details: for proliferation and passage of pgEpiSCs: FGF2 removed, with addition of PD0325901
Protocol: Porcine EpiSCs were cultured in 12-well plates. Cell samples were seeded in triplicate at a density of 2×10^4 cells per well. Cells were counted every 12 hours. Cells were digested and counted using the Luna™ automated cell counter at each time point. The results of the three counts were averaged and plotted. The cell doubling time was calculated as follows: Doubling Time (DT)=24×[lg2/(lgNt−IgN0)], where 24 was the cell culture time (hours); Nt was the number of cells cultured for 48 hours; and No was the number of cells recorded at 24 hours.
as §1

phosphorylated STAT3 = assay: Western blot of phosphorylated STAT3 in pgEpiSCs; details: with or without LIF; Western blotting
Protocol: Total proteins in cells were extracted using cell lysis buffer (Beyotime Biotechnology, P0013), and nuclear and cytoplasmic proteins were extracted using a cell nucleus and cytoplasmic protein extraction kit (Beyotime Biotechnology, P0027) supplemented with protease and phosphatase inhibitors (P1050). The concentration of extracted proteins was measured using a Bradford protein detection kit (Bio-red, 5000201). An equal amount of proteins (15 μg) were separated by SDS-PAGE gel electrophoresis, and then transferred from the gel to the Immobilon-P transfer membrane (Merck Millipore; pore size: 0.45 μm; IPVH00010). The blots were blocked in 5% skim milk powder (Sangon Biotech, A600669-0250) in TBST (20 mM Tris, pH 7.5; 150 mM NaCl; 0.1% Tween 20) at room temperature for 1 hour, and then incubated with the antibody diluted in 5% skim milk powder in TBST at 4° C. overnight. The next day, the blots were rinsed 3 times with TBST for 5 minutes each time, and then incubated with HRP conjugated secondary antibody diluted in 5% skim milk powder in TBST at room temperature for 1 hour, and finally rinsed 3 times with TBST for 5 minutes each time. The blots were developed using SuperSignal® West Dura Extended Duration Substrate (Thermo Fisher Scientific, 34075), followed by analysis of the band strength of the target protein using the CLINX chemiluminescence software. […]

[5] = IWR-1-endo replaced in 3i/LAF medium

Cc1c[nH]c(-c2cnc(NCCNc3ccc(C#N)cn3)nc2-c2ccc(Cl)cc2Cl)n1 [CHIR99021]
marker gene mRNA expression after removal of the component (pgEpiSCs [1]): downregulated the expression of cell proliferation related genes such as LIN28A, C-MYC, ETV4 and ETV5
expression of POU5F1 and GATA6 at high concentration (pgEpiSCs [1]; high concentration of CHIR99021 in 3i/LAF medium): downregulation of the pluripotency marker POU5F1 and significant upregulation of the endodermal marker GATA6; also recorded: the expression of the pluripotency gene POU5F1 was reduced, and the expression of the lineage differentiation gene GATA6 was upregulated, presenting a heterogeneous expression pattern
expression levels of TBX3 and ESRRB (pgEpiSCs [1]; increasing concentration of CHIR99021 in 3i/LAF medium): increased with increasing concentration

O=C(Nc1cccc2cccnc12)c1ccc(N2C(=O)[C@@H]3[C@H](C2=O)[C@@H]2C=C[C@H]3C2)cc1 [IWR-1-endo]
clone morphology / AP staining after removal of the component (pgEpiSCs [2]): unclear boundaries of pgEpiSC clones
marker gene mRNA expression after removal of the component (pgEpiSCs [1]): significant downregulation of core pluripotency factors such as NANOG, POU5F1, SOX2 and REX1; also recorded: upregulation of the gastrulation formation marker genes BMP2, BMP4, EOMES and T
POU5F1 and EOMES immunostaining after removal of the component (pgEpiSCs [3]): reduced or heterogeneous accumulation of the pluripotency factor POU5F1, while promoting the expression of the mesoderm and endoderm progenitor cell marker EOMES

O=C(NOC[C@H](O)CO)c1ccc(F)c(F)c1Nc1ccc(I)cc1F [PD0325901]
proliferation and passage of pgEpiSCs (pgEpiSCs [4]): could not proliferate or passage normally

NC(=O)c1ccc(-c2nc(-c3ccc4c(c3)OCO4)c(-c3ccccn3)[nH]2)cc1 [SB431542]
clone morphology after addition of the inhibitor (pgEpiSCs [2]; inhibitor added to the medium): irregular clone morphology
BMP4 and BMP downstream transcription factors ID2, ID3 after addition of the inhibitor (pgEpiSCs [1]; inhibitor added to the medium): significant increase in BMP4 and BMP downstream transcription factors (such as ID2 and ID3)
NANOG levels after addition of the inhibitor (pgEpiSCs [1]; inhibitor added to the medium): significant decline in NANOG levels
pluripotency markers POU5F1 and REX1 after addition of the inhibitor (pgEpiSCs [1]; inhibitor added to the medium): significant decrease in pluripotency markers (such as POU5F1 and REX1)

COc1ccc(N(C(=O)Oc2c(C)cccc2C)c2ccnc(Nc3ccc(N4CCN(C)CC4)cc3)n2)c(OC)c1 [WH-4-023]
marker gene mRNA expression after removal of the component (pgEpiSCs [1]): upregulation of the gastrulation formation marker genes BMP2, BMP4, EOMES and T
POU5F1 and EOMES immunostaining after removal of the component (pgEpiSCs [3]): reduced or heterogeneous accumulation of the pluripotency factor POU5F1, while promoting the expression of the mesoderm and endoderm progenitor cell marker EOMES

Oc1nc(-c2ccc(C(F)(F)F)cc2)nc2c1CSCC2 [XAV939]
maintenance of pluripotency after replacing IWR-1-endo (pgEpiSCs [2]; [5]): unable to maintain pluripotency for a long time
passages until AP positivity was lost (pgEpiSCs [2]; [5]): around 8 passages
expression of core pluripotency factor OCT4 (POU5F1) (pgEpiSCs [1]; [5]): downregulated
expression of pluripotency factors REX1, STELLA, and ESRRB (pgEpiSCs [1]; [5]): downregulated

FGF2: fibroblast growth factor; recombinant human FGF-basic, Peprotech 100-18B
proliferation and passage of pgEpiSCs (pgEpiSCs [4]): could not proliferate or passage normally
proliferation of pgEpiSCs at high concentration (pgEpiSCs [4]; high concentration of FGF2): cells proliferated faster at the high concentration
proliferation ability of pgEpiSCs at reduced concentration (pgEpiSCs [4]; reduced concentration of FGF2, otherwise unchanged conditions): significantly reduced the proliferation ability of pgEpiSCs

LIF: cytokine of 3i/LAF; recombinant human LIF, PeproTech 300-05
detection of phosphorylated STAT3 (phosphorylated STAT3): phosphorylated STAT3 could only be detected in the presence of LIF
clone morphology / AP staining after removal of the component (pgEpiSCs [2]): not a necessary condition for maintaining the morphology of pgEpiSC clones

B1: Activin A: a member of the TGF-β superfamily; recombinant human Activin A, Peprotech 120-14E (protein, UniProt P08476 311-426, looked up)
Inhibin beta A chain: GLECDGKVNICCKKQFFVSFKDIGWNDWIIAPSGYHANYCEGECPSHIAGTSGSSLSFHSTVINHYRMRGHSPFANLKSCCVPTKLRPMSMLYYDDGQNIIKKDIQNMIVEECGCS
modifications: Inhibin beta A chain recombinant homodimer
marker gene mRNA expression after removal of the component (pgEpiSCs [1]): reduced levels of the pluripotency marker NANOG
